# Where two headings read alike, the source gives them in different places.
# How the values were obtained:
# WT HIV-1 strain (IIIB) [1] = type: cell-based; settings: ratio of CC50/EC50, MT-4 cells
# [2] = system: K103 N + Y181C double mutant HIV-1 strain (RES056); test: Anti-HIV-1 activity against double mutant RES056 in MT-4 cells, MTT method; type: cell-based; settings: for SI RES056: ratio of CC50/EC50, MT-4 cells, values given with symbol X1; for EC50 RES056: MT-4 cells, MTT method
# wild-type HIV-1 (NL4-3) = test: Inhibition of wild-type HIV-1; type: cell-based; settings: ratio of CC50/EC50, TZM-bl cells
# [3] = system: HIV-1 E138K mutant strain; test: microbe, parasite or virus in culture; type: cell-based
# [4] = system: HIV-1 Y181C mutant strain; type: cell-based
# [5] = Cytotoxicity in mock-infected MT-4 cells, MTT method; type: cell-based; settings: human
# [6] = system: HIV-1 L100I mutant strain; test: microbe, parasite or virus in culture; type: cell-based
# [7] = system: HIV-1 K103 N mutant strain; type: cell-based; settings: ratio of CC50/EC50, MT-4 cells
# [8] = system: HIV-1 Y188L mutant strain; test: microbe, parasite or virus in culture; type: cell-based; settings: for EC50: Human immunodeficiency virus 1, MT4, read-out: EC50 Y188L
# [9] = system: HIV-1 F227L + V106A mutant strain; test: microbe, parasite or virus in culture; type: cell-based
# WT HIV-1 strain (IIIB) [10] = settings: cited from earlier work
# [11] = system: K103 N + Y181C double mutant HIV-1 strain (RES056); settings: cited from earlier work
# MT-4 cells = settings: cited from earlier work
# HIV-1 RT = HIV-1 RT (Human immunodeficiency virus type 1 group M subtype B, UniProt P03366); settings: read-out: IC50 against HIV-1 RT; cited from earlier work
smiles,measurement,setting,value
"Cc1cc(C)c(Oc2cc(Nc3ccc(C#N)cc3)ncc2C(=O)NCc2cn(Cc3ccccc3C)nn2)c(C)c1 [3a1, N-((1-(2-methylbenzyl)-1H-1,2,3-triazol-4-yl)methyl)-6-((4-cyanophenyl)amino)-4(mesityloxy)nicotinamide]",SI IIIB,WT HIV-1 strain (IIIB) [1],≥2132
"Cc1cc(C)c(Oc2cc(Nc3ccc(C#N)cc3)ncc2C(=O)NCc2cn(Cc3ccccc3F)nn2)c(C)c1 [3a2, N-((1-(2-fluorobenzyl)-1H-1,2,3-triazol-4-yl)methyl)-6-((4-cyanophenyl)amino)-4-(mesityloxy)nicotinamide]",SI IIIB,WT HIV-1 strain (IIIB) [1],>2348
same,SI RES056,[2],X1
"Cc1cc(C)c(Oc2cc(Nc3ccc(C#N)cc3)ncc2C(=O)NCc2cn(Cc3ccccc3Cl)nn2)c(C)c1 [3a3, N-((1-(2-chlorobenzyl)-1H-1,2,3-triazol-4-yl)methyl)-6-((4-cyanophenyl)amino)-4-(mesityloxy)nicotinamide]",SI IIIB,WT HIV-1 strain (IIIB) [1],≥1807
"Cc1cc(C)c(Oc2cc(Nc3ccc(C#N)cc3)ncc2C(=O)NCc2cn(Cc3ccccc3C#N)nn2)c(C)c1 [3a4, N-((1-(2-cyanobenzyl)-1H-1,2,3-triazol-4-yl)methyl)-6-((4-cyanophenyl)amino)-4-(mesityloxy)nicotinamide]",SI IIIB,WT HIV-1 strain (IIIB) [1],>5589
same,SI RES056,[2],X1
"Cc1cc(C)c(Oc2cc(Nc3ccc(C#N)cc3)ncc2C(=O)NCc2cn(Cc3ccccc3[N+](=O)[O-])nn2)c(C)c1 [3a5, N-((1-(2-nitrobenzyl)-1H-1,2,3-triazol-4-yl)methyl)-6-((4-cyanophenyl)amino)-4-(mesityloxy)nicotinamide]",SI IIIB,WT HIV-1 strain (IIIB) [1],>3724
same,SI RES056,[2],X1
"Cc1cc(C)c(Oc2cc(Nc3ccc(C#N)cc3)ncc2C(=O)NCc2cn(Cc3cccc(F)c3)nn2)c(C)c1 [3a7, N-((1-(3-fluorobenzyl)-1H-1,2,3-triazol-4-yl)methyl)-6-((4-cyanophenyl)amino)-4-(mesityloxy)nicotinamide]",SI IIIB,WT HIV-1 strain (IIIB) [1],≥2608
"Cc1cc(C)c(Oc2cc(Nc3ccc(C#N)cc3)ncc2C(=O)NCc2cn(Cc3cccc(C#N)c3)nn2)c(C)c1 [3a9, N-((1-(3-cyanobenzyl)-1H-1,2,3-triazol-4-yl)methyl)-6-((4-cyanophenyl)amino)-4-(mesityloxy)nicotinamide]",SI IIIB,WT HIV-1 strain (IIIB) [1],≥5213
"Cc1cc(C)c(Oc2cc(Nc3ccc(C#N)cc3)ncc2C(=O)NCc2cn(Cc3cccc([N+](=O)[O-])c3)nn2)c(C)c1 [3a10, N-((1-(3-nitrobenzyl)-1H-1,2,3-triazol-4-yl)methyl)-6-((4-cyanophenyl)amino)-4-(mesityloxy)nicotinamide]",SI IIIB,WT HIV-1 strain (IIIB) [1],≥4220
"Cc1cc(C)c(Oc2cc(Nc3ccc(C#N)cc3)ncc2C(=O)NCc2cn(Cc3ccc(F)cc3)nn2)c(C)c1 [3a12, N-((1-(4-fluorobenzyl)-1H-1,2,3-triazol-4-yl)methyl)-6-((4-cyanophenyl)amino)-4-(mesityloxy)nicotinamide]",SI IIIB,WT HIV-1 strain (IIIB) [1],≥2056
"Cc1cc(C)c(Oc2cc(Nc3ccc(C#N)cc3)ncc2C(=O)NCc2cn(Cc3ccc(Cl)cc3)nn2)c(C)c1 [3a13, N-((1-(4-chlorobenzyl)-1H-1,2,3-triazol-4-yl)methyl)-6-((4-cyanophenyl)amino)-4-(mesityloxy)nicotinamide]",SI IIIB,WT HIV-1 strain (IIIB) [1],≥620
"Cc1cc(C)c(Oc2cc(Nc3ccc(C#N)cc3)ncc2C(=O)NCc2cn(Cc3ccc([N+](=O)[O-])cc3)nn2)c(C)c1 [3a14, N-((1-(4-nitrobenzyl)-1H-1,2,3-triazol-4-yl)methyl)-6-((4-cyanophenyl)amino)-4-(mesityloxy)nicotinamide]",SI IIIB,WT HIV-1 strain (IIIB) [1],≥3498
"Cc1cc(C)c(Oc2cc(Nc3ccc(C#N)cc3)ncc2C(=O)NCc2cn(CCCO)nn2)c(C)c1 [3b1, 6-((4-cyanophenyl)amino)-N-((1-(3-hydroxypropyl)-1H-1,2,3-triazol-4-yl)methyl)-4-(mesityloxy)nicotinamide]",EC50 RES056,[2],low micromolar concentration
"Cc1cc(C)c(Oc2cc(Nc3ccc(C#N)cc3)ncc2C(=O)NCc2cn(CCC#N)nn2)c(C)c1 [3b2, N-((1-(2-cyanoethyl)-1H-1,2,3-triazol-4-yl)methyl)-6-((4-cyanophenyl)amino)-4-(mesityloxy)nicotinamide]",SI IIIB,WT HIV-1 strain (IIIB) [1],2044
same,EC50 RES056,[2],low micromolar concentration
"CC(=O)Cn1cc(CNC(=O)c2cnc(Nc3ccc(C#N)cc3)cc2Oc2c(C)cc(C)cc2C)nn1 [3b3, 6-((4-cyanophenyl)amino)-4-(mesityloxy)-N-((1-(2-oxopropyl)-1H-1,2,3-triazol-4-yl)methyl)nicotinamide]",EC50 RES056,[2],low micromolar concentration
"Cc1cc(C)c(Oc2cc(Nc3ccc(C#N)cc3)ncc2C(=O)NCc2cn(CC(N)=O)nn2)c(C)c1 [3b7, N-((1-(2-amino-2-oxoethyl)-1H-1,2,3-triazol-4-yl)methyl)-6-((4-cyanophenyl)amino)-4-(mesityloxy)nicotinamide]",EC50 RES056,[2],low micromolar concentration
"Cc1cc(C)c(Oc2cc(Nc3ccc(C#N)cc3)ncc2C(=O)NCc2cn(CC(=O)N3CCCC3)nn2)c(C)c1 [3b8, 6-((4-cyanophenyl)amino)-4-(mesityloxy)-N-((1-(2-oxo-2-(pyrrolidin-1-yl)ethyl)-1H-1,2,3-triazol-4-yl)methyl)nicotinamide]",EC50 RES056,[2],low micromolar concentration
"Cc1cc(C)c(Oc2cc(Nc3ccc(C#N)cc3)ncc2C(=O)NCc2cn(CC(=O)N3CCOCC3)nn2)c(C)c1 [3b9, 6-((4-cyanophenyl)amino)-4-(mesityloxy)-N-((1-(2-morpholino-2-oxoethyl)-1H-1,2,3-triazol-4-yl)methyl)nicotinamide]",SI IIIB,WT HIV-1 strain (IIIB) [1],9279
same,EC50 RES056,[2],low micromolar concentration
same,SI,wild-type HIV-1 (NL4-3),>10.8
"Cc1cn([C@H]2C[C@H](N=[N+]=[N-])[C@@H](CO)O2)c(=O)[nH]c1=O [AZT, Zidovudine]",EC50,"[3]; Human immunodeficiency virus 1, MT4, read-out: EC50 E138K",13 ± 4 nM
same,Resistance Folds Y181C,[4]; ratio of EC50 against mutant strain/EC50 against WT strain,1.0
"CC(C)Nc1cccnc1N1CCN(C(=O)c2cc3cc(NS(C)(=O)=O)ccc3[nH]2)CC1 [DLV, Delavirdine]",CC50 at 5 days,[5],36800 nM
same,SI L100I,"[6]; ratio of CC50/EC50, MT-4 cells",14
same,SI K103 N,[7],12
same,SI E138K,"[3]; ratio of CC50/EC50, MT-4 cells",715
same,SI Y181C,"[4]; ratio of CC50/EC50, MT-4 cells",15
same,SI Y188L,"[8]; ratio of CC50/EC50, MT-4 cells",44
same,SI F227L + V106A,"[9]; ratio of CC50/EC50, MT-4 cells",16
"O=C1Nc2ccc(Cl)cc2[C@@](C#CC2CC2)(C(F)(F)F)O1 [EFV, Efavirenz]",EC50,[8],340 ± 10 nM
same,EC50,"[9]; Human immunodeficiency virus 1, MT4, read-out: EC50 F227L + V106A",210 ± 8 nM
"Cc1cc(C#N)cc(C)c1Oc1nc(Nc2ccc(C#N)cc2)nc(N)c1Br [ETR, Etravirine]",CC50 at 5 days,[5],2460 nM
"C#CCNC(=O)c1cnc(Nc2ccc(C#N)cc2)cc1Oc1c(C)cc(C)cc1C [L-6b5, 6-((4-cyanophenyl)amino)-4-(mesityloxy)-N-(prop-2-yn-1-yl)nicotinamide]",SI IIIB,WT HIV-1 strain (IIIB) [10]; ratio of CC50/EC50,2471
same,EC50,"WT HIV-1 strain (IIIB) [10]; read-out: EC50 IIIB, MT-4 cells",29 ± 5 nM
same,SI RES056,[11]; ratio of CC50/EC50,12
same,EC50,"[11]; read-out: EC50 RES056, MT-4 cells",6100 ± 540 nM
same,CC50,MT-4 cells,73000 ± 26900 nM
"Cc1ccnc2c1NC(=O)c1cccnc1N2C1CC1 [NVP, Nevirapine]",EC50,"[6]; Human immunodeficiency virus 1, MT4, read-out: EC50 L100I",830 ± 320 nM
same,EC50,[8],9610 ± 1860 nM
CCOc1ccnc(CCNC(=S)Nc2ccc(Cl)cn2)c1F [PETT-2],IC50,HIV-1 RT,5 nM

# From paper PMC6001364 (European journal of medicinal chemistry, 2018)
